Laboratory results reported in patent publication US5270302A, “Derivatives of tetrapeptides as CCK agonists” (priority 1991, dated 1993).
Read-outs that look alike come from different tables or passages of the source. *1 amine or outer side, *2 acyl side, *3 side chain or, on linkers, in order; H or OH if unused. Where a SMILES comes first, the peptide text is derived from it. Side-chain parts run from the residue outwards. [ ]: non-standard residue; d: D form. The star is where a group is joined. Butanoyl(3,3-Me2) = CC(C)(C)CC(=O)*; NMeF = CN[C@@H](Cc1ccccc1)C(=O)O; X10 = COc1ccc(C=CC(=O)*)c(OC)c1; Cha = N[C@@H](CC1CCCCC1)C(=O)O; NMeD = CN[C@@H](CC(=O)O)C(=O)O; X4 = O=C(OC1C2CC3CC(C2)CC1C3)*; NH(2-Me-phenyl) = Cc1ccccc1N*; X5 = O=C(CCc1ccc(O)c(I)c1)*; βNA = c1ccc2cc(N*)ccc2c1; Cbz = O=C(OCc1ccccc1)*; Boc = CC(C)(C)OC(=O)*; X3 = O=C(C=Cc1cccs1)*; CO = O=C([*:1])[*:2]; Ms = CS(=O)(=O)*; Moc = COC(=O)*

Assays:
Type-B CCK receptor = target: T1, Type-B CCK receptor (Cavia porcellus, UniProt H0VZC5); experiment: Radioligand binding of [125I]BH-CCK-8 in guinea pig cerebral cortical membrane preparations
T1 construct: Cortical and pancreatic membranes were prepared as described; from tissue; host or cells: guinea pig cerebral cortex membranes
T1 sequence (H0VZC5 1-426): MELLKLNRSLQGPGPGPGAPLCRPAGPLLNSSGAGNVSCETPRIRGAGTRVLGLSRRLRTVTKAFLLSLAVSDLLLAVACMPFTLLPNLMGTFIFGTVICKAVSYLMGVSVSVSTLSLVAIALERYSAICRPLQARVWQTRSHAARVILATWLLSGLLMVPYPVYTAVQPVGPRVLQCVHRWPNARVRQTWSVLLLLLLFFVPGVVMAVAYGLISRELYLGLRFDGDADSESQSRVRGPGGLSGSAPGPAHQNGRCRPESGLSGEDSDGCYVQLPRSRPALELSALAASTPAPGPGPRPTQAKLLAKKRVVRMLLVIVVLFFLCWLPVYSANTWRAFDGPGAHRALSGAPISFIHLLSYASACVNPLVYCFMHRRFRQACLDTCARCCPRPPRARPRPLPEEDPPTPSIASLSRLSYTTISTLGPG
Text: (§1) CCK-8 [Asp-Tyr(SO3 H)-Met-Gly-Trp-Met-Asp-PheNH2 ], bestatin and phosphoramidion were purchased from Peptide International (Louisville, Ky.). EGTA (ethylene glycol-bis-(β-aminoethyl) N,N,N',N'-tetraacetic acid), HEPES (4-(2-hydroxyethyl)-1-piperazine-enthanesulfonic acid) and BSA (bovine serum albumin) were purchased from Sigma Chemical Co. (St. Louis, Mo.). [^125 I]-Bolton-Hunteer (BH-CCK-8) (specific activity, 2200 Ci/mmol) was obtained from New England Nuclear (Boston, Mass.). Male guinea pigs, 250 to 325 g, were obtained from Scientific Small Animal Laboratory and Farm (Arlington Heights, Ill.). Collagenase, code CLSPA was purchased from Worthington (Frehold, N.J.).
(§2) Protocol For Radioligand Binding Experiments in Guinea Pig Cerebral Cortical and Pancreatic Membrane Preparations
(§3) Cortical and pancreatic membranes were prepared as described (Lin and Miller; J. Pharmacol. Exp. Ther. 1985, 232:775-780,). In brief, cortex and pancreas were removed and rinsed with ice-cold saline. Visible fat and connective tissues were removed from the pancreas. […] The homogenates were entrifuged for 10 minutes at 1075×g and pellets were discarded. The supernatants were saved and centrifuged at 38,730×g for 20 minutes. The resultant pellets were rehomogenized in 25 mL of 50 mM Tris-HCl buffer with a Teflon-glass homogenizer, 5 up and down strokes. The homogenates were centrifuged again at 38,730×g for 20 minutes. Pellets werre then resuspended in 20 mM HEPES, containing 1 mM EGTA, 118 mM NaCl, 4.7 mM KCl, 5 mM MgCl2, 100 μM bestatin, 3 μM phosphoramidon, pH 7.4 at 22° C. with a Teflon-glass homogenizer, 15 up and down strokes. Resuspension volume for the cortex was 15-18 mL per gram of original wet weight and 60 mL per gram for the pancreas.
(§4) [^125 I]Bolton-Hunter CCK-8 and test compounds were diluted with HEPES-EGTA-salt buffer (see above) containing 0.5% BSA. To 1 mL Skatron polystyrene tubes were added 25 μL of test compounds, 25 μL of [^125 I]BH-CCK-8 and 200 μL of membrane suspension. The final BSA concentration was 0.1%. The cortical tissues were incubated at 30° C. for 150 minutes and pancreatic tissues were incubated at 37° C. for 150 min. Incubations were terminated by filtration using Skatron Cell Harvester and SS32 microfiber filter mats. […] IC50 s were determined from the Hill analysis.

Type-A CCK receptor = target: T2, Type-A CCK receptor (Cavia porcellus, UniProt Q63931); experiment: Radioligand binding of [125I]BH-CCK-8 in guinea pig pancreatic membrane preparations
T2 construct: Cortical and pancreatic membranes were prepared as described; from tissue; host or cells: guinea pig pancreas membranes
T2 sequence (Q63931 1-430): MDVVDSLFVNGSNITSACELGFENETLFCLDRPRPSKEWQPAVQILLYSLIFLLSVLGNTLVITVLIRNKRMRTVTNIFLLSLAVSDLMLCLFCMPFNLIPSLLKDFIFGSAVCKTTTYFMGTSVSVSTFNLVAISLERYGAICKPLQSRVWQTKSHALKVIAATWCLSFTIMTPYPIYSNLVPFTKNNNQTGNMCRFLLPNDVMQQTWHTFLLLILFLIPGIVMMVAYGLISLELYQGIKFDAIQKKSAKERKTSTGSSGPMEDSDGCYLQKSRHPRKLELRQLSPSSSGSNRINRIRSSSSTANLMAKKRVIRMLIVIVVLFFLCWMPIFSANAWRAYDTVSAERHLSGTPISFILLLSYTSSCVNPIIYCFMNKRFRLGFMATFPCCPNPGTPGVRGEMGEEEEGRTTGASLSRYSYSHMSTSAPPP
Text: as §1, §2, §3, §4

[1] = IC50 (nM) 125I-BH-CCK-8 Type-B receptor, guinea pig cortical membranes, 30° C., 150 minutes
[2] = IC50 (nM) 125I-BH-CCK-8 Type-A receptor, guinea pig pancreatic membranes, 37° C., 150 min
[3] = guinea pig cortical membranes, 30° C., 150 minutes, read-out: IC50 (nM) 125I-BH-CCK-8 Type-B receptor
[4] = guinea pig pancreatic membranes, 37° C., 150 min, read-out: IC50 (nM) 125I-BH-CCK-8 Type-A receptor

IC50 (Type-B CCK receptor; [3]) | IC50 (Type-A CCK receptor; [4]) | SMILES | IC50 (Type-B CCK receptor; [1]) | IC50 (Type-A CCK receptor; [2]) | also measured
– | – | Cc1ccccc1NC(=O)NCCCC[C@H](NC(=O)[C@H](Cc1c[nH]c2ccccc12)NC(=O)CC(C)(C)C)C(=O)N[C@@H](CC(=O)O)C(=O)N(C)[C@@H](Cc1ccccc1)C(N)=O [Example 87, t-Butylacetyl-Trp-Lys(ε-N-(2-methylphenyl)aminocarbonyl)-Asp-(NMe)PheNH2] ({Butanoyl(3,3-Me2)}-WK([CO-NH(2-Me-phenyl)])D[NMeF]-NH2) | 8400 nM | 4.5 nM | –
– | – | Cc1ccccc1NC(=O)NCCCC[C@H](NC(=O)[C@H](Cc1c[nH]c2ccccc12)NC(=O)OCc1ccccc1)C(=O)N[C@@H](CC(=O)O)C(=O)N(C)[C@@H](Cc1ccccc1)C(N)=O [Example 76, Benzyloxycarbonyl-Trp-Lys(ε-N-(2-methylphenyl)aminocarbonyl)-Asp-(NMe)PheNH2] (Cbz-WK([CO-NH(2-Me-phenyl)])D[NMeF]-NH2) | – | – | IC50 (Type-B CCK receptor): 6400 nM; IC50 (Type-A CCK receptor): 18 nM
> 10000 nM | 47 nM | Cc1ccccc1NC(=O)NCCCC[C@H](NC(=O)[C@H](Cc1c[nH]c2ccccc12)NS(C)(=O)=O)C(=O)N[C@@H](CC(=O)O)C(=O)N(C)[C@@H](Cc1ccccc1)C(N)=O [Example 95, Methylsufonamyl-Trp-Lys(ε-N-(2-methylphenyl)aminocarbonyl)-Asp-(NMe)PheNH2] (Ms-WK([CO-NH(2-Me-phenyl)])D[NMeF]-NH2) | – | – | –
– | – | Cc1ccccc1NC(=O)NCCCC[C@H](NC(=O)[C@H](Cc1c[nH]c2ccccc12)NC(=O)CCc1ccc(O)c(I)c1)C(=O)N[C@@H](CC(=O)O)C(=O)N(C)[C@@H](Cc1ccccc1)C(N)=O [Example 93, (3-(4-Hydroxy-3-iodophenyl)propionyl)-Trp-Lys(ε-N-(2-methylphenyl)aminocarbonyl)-Asp-(NMe)PheNH2] (X5-WK([CO-NH(2-Me-phenyl)])D[NMeF]-NH2) | – | – | IC50 (Type-B CCK receptor): 4200 nM; IC50 (Type-A CCK receptor): 4.6 nM
– | – | COC(=O)N[C@@H](Cc1c[nH]c2ccccc12)C(=O)N[C@@H](CCCCNC(=O)Nc1ccccc1C)C(=O)N(C)[C@@H](CC(=O)O)C(=O)N[C@@H](Cc1ccccc1)C(N)=O [Example 81, Methoxycarbonyl-Trp-Lys(ε-N-(2-methylphenyl)aminocarbonyl)-(NMe)Asp-PheNH2] (Moc-WK([CO-NH(2-Me-phenyl)])[NMeD]F-NH2) | > 10000 nM | 2.1 nM | –
10000 nM | 68 nM | Cc1ccccc1NC(=O)NCCCC[C@H](NC(=O)CCc1c[nH]c2ccccc12)C(=O)N(C)[C@@H](CC(=O)O)C(=O)N[C@@H](Cc1ccccc1)C(N)=O [Example 65, 3-(3-Indolyl)propionyl-Lys(ε-N-(2-methylphenyl)aminocarbonyl)-(NMe)Asp-PheNH2] | – | – | –
– | – | Cc1ccccc1NC(=O)NCCCC[C@H](NC(=O)[C@H](Cc1c[nH]c2ccccc12)NC(=O)CC(C)(C)C)C(=O)N(C)[C@@H](CC(=O)O)C(=O)N[C@@H](Cc1ccccc1)C(N)=O [Example 88B, t-butylacetyl-Trp-Lys(ε-N-(2-methylphenyl)aminocarbonyl)-(NMe)Asp-PheNH2] ({Butanoyl(3,3-Me2)}-WK([CO-NH(2-Me-phenyl)])[NMeD]F-NH2) | > 10000 nM | 3.7 nM | –
– | – | Cc1ccccc1NC(=O)NCCCC[C@H](NC(=O)C1Cc2c[nH]c3cccc(c23)CC(=O)N1)C(=O)N[C@@H](CC(=O)O)C(=O)N(C)[C@@H](Cc1ccccc1)C(N)=O (some centres unmarked) [Example 112, Ctp-Lys(ε-N-(2-methylphenyl)aminocarbonyl)-Asp-(NMe)PheNH2] | 900 nM | 6.3 nM | –
– | – | Cc1ccccc1NC(=O)NCCCC[C@H](NC(=O)[C@H](Cc1c[nH]c2ccccc12)NC(=O)OC(C)(C)C)C(=O)N[C@@H](CC(=O)O)C(=O)N[C@@H](CC1CCCCC1)C(N)=O [Example 116, t-BOC-Trp-Lys(ε-N-(2-methylphenyl)aminocarbonyl)-Asp-ChaNH2] (Boc-WK([CO-NH(2-Me-phenyl)])D[Cha]-NH2) | 4000 nM | 10 nM | –
640 nM | 10 nM | Cc1ccccc1NC(=O)NCCCC[C@H](NC(=O)C(C#N)Cc1c[nH]c2ccccc12)C(=O)N[C@@H](CC(=O)O)C(=O)N[C@@H](Cc1ccccc1)C(N)=O (some centres unmarked) [Example 64, (2-Cyano-3-(3-indolyl)propionyl)-Lys(ε-N-(2-methylphenyl)aminocarbonyl)-Asp-PheNH2] | – | – | –
– | – | Cc1ccccc1NC(=O)NCCCC[C@H](NC(=O)[C@H](Cc1c[nH]c2ccccc12)NC(=O)OC1C2CC3CC(C2)CC1C3)C(=O)N[C@@H](CC(=O)O)C(=O)N(C)[C@@H](Cc1ccccc1)C(N)=O (some centres unmarked) [Example 74, 2-Adamantyloxycarbonyl-Trp-Lys(ε-N-(2-methylphenyl)aminocarbonyl)Asp-(NMe)PheNH2] (X4-WK([CO-NH(2-Me-phenyl)])D[NMeF]-NH2) | – | – | IC50 (Type-B CCK receptor): 8000 nM; IC50 (Type-A CCK receptor): 22 nM
3000 nM | 130 nM | COc1ccc(C=CC(=O)NCCCC[C@H](NC(=O)[C@H](Cc2c[nH]c3ccccc23)NC(=O)OC(C)(C)C)C(=O)N[C@@H](CC(=O)O)C(=O)N[C@@H](Cc2ccccc2)C(N)=O)c(OC)c1 [Example 23, t-BOC-Trp-Lys(ε-N-(2,4-dimethoxycinnamoyl))-Asp-PheNH2] (Boc-WK(X10)DF-NH2) | – | – | –
– | – | COC(=O)N[C@@H](Cc1c[nH]c2ccccc12)C(=O)N[C@@H](CCCCNC(=O)Nc1ccccc1C)C(=O)N(C)[C@@H](CC(=O)O)C(=O)N(C)[C@@H](Cc1ccccc1)C(N)=O [Example 124] (Moc-WK([CO-NH(2-Me-phenyl)])[NMeD][NMeF]-NH2) | 2600 nM | 4.5 nM | –
– | – | Cc1ccccc1NC(=O)NCCCC[C@H](NC(=O)C(C)(N)Cc1c[nH]c2ccccc12)C(=O)N[C@@H](CC(=O)O)C(=O)N(C)[C@@H](Cc1ccccc1)C(N)=O (single isomer, unassigned; isomer b) [Example 99, (α-Methyl)Trp-Lys(ε-N-(2-methylphenyl)aminocarbonyl)-Asp-(NMe)PheNH2 (Isomer B)] | > 10000 nM | 67 nM | –
8100 nM | 35 nM | CN(C(=O)[C@H](CCCCNC(=O)C=Cc1cccs1)NC(=O)[C@H](Cc1c[nH]c2ccccc12)NC(=O)OC(C)(C)C)[C@@H](CC(=O)O)C(=O)N[C@@H](Cc1ccccc1)C(N)=O [Example 66, t-BOC-Trp-Lys-(ε-N-3-(2-thienyl)acrylyl)-(NMe)Asp-PheNH2] (Boc-WK(X3)[NMeD]F-NH2) | – | – | –

SMILES | IC50 (Type-B CCK receptor; [3]) | IC50 (Type-A CCK receptor; [4]) | IC50 (Type-B CCK receptor; [1]) | IC50 (Type-A CCK receptor; [2]) | also measured
CC(C)(C)OC(=O)N[C@@H](Cc1c[nH]c2ccccc12)C(=O)N[C@@H](CCCCNC(=O)Nc1ccc2ccccc2c1)C(=O)N[C@@H](CC(=O)O)C(=O)N[C@@H](Cc1ccccc1)C(N)=O [Example 44, t-BOC-Trp-Lys(ε-N-(β-naphthyl)aminocarbonyl)-Asp-PheNH2] (Boc-WK([CO-βNA])DF-NH2) | – | 16 nM | – | – | IC50 (Type-B CCK receptor): 3200 nM
